# Data: patent US20230204587A1, “NOVEL DIAGNOSTIC MARKER FOR PROSTATE CANCER” (URTESTE S.A., priority 2020, published 2023)
# Starred links: 1 amine or outer side, 2 acyl side, 3 side chain; linkers in the order of their positions; H or OH if unused. Non-standard residues stand in square brackets, D forms with d. No end group written: not given here. *: point of attachment. Benzoyl(5-NH,2-NO2) = O=C(c1cc(N[*:1])ccc1[N+](=O)[O-])[*:2]; pNA = O=[N+]([O-])c1ccc(N*)cc1; 2Abz = Nc1ccccc1C(=O)O
# What was measured:
# [1] = tested on: proteolytic enzymes in urine; assay: Chromogenic substrate hydrolysis in urine samples (absorbance at 405 nm, 96-well plate); format: biochemical, human; settings: for rate of hydrolysis of substrate (increase in absorbance over time): 200 mM Tris-HCl pH 8.0, 37° C., 60 minutes, 405 nm
# Experimental: The study on the application of new compounds was performed on a group of 25 patients diagnosed with prostate cancer. For this purpose, the compound with formula: ABZ-Trp-Glu-Gly-Asn-ANB-NH2 or ABZ-Trp-Glu-Gly-Asn-pNA was dissolved in dimethyl sulfoxide (at a concentration of 0.5 mg/mL); 50 μL of this solution was mixed with 120 μl buffer (200 mM Tris-HCl, pH 8.0) and 80 μL of urine of a person with prostate cancer. The measurement was made in a 96-well plate designed for measuring absorbance, and each sample was analysed in triplicate at 37° C. The duration of the measurement was 60 minutes. During the measurement, the wavelength characteristic of the released chromophore (ANB-NH2 or pNA) was monitored at 405 nm (range 380-430 nm).
# [2] = tested on: proteolytic enzymes in urine; assay: RP HPLC analysis of substrate hydrolysis in urine from a person diagnosed with prostate cancer; format: biochemical, human; settings: randomly selected urine from a person diagnosed with prostate cancer
# Experimental: A: ABZ-Trp-Glu-Gly-Asn-ANB-NH2 substrate in 200 mM Tris-HCl buffer, pH 8.0. B: Hydrolysis of ABZ-Trp-Glu-Gly-Asn-pNA substrate in urine of patients diagnosed with prostate cancer.
Substance,rate of hydrolysis of substrate (increase in absorbance over time) ([1]; urine from healthy individuals),"absorbance increase on incubation with urine from various kinds of malignancies ([1]; urine from pancreas, liver, bowel, lung, bile duct, stomach and prostate cancer patients)",rate of hydrolysis of substrate (increase in absorbance over time) ([1]; urine of patients diagnosed with prostate cancer (samples 1-25)),hydrolysis products by RP HPLC [2]
"ABZ-Trp-Glu-Gly-Asn-ANB-NH2 ([2Abz]WEGN-{Benzoyl(5-NH,2-NO2)-NH2}) [Compound 1, chromogenic peptide; ABZ is 2-aminobenzoic acid, ANB-NH2 is amide of 5-amino-2-nitrobenzoic acid]",does not lead to an increase in absorbance,absorbance increase is observed only for urine of patient diagnosed with prostate cancer,all samples 1-25 disintegrated,break down into the ABZ-Trp-Glu-Gly-Asn-OH peptide fragment and chromophore
"ABZ-Trp-Glu-Gly-Asn-pNA ([2Abz]WEGN-pNA) [Compound 2, chromogenic peptide; ABZ is 2-aminobenzoic acid, pNA is para-nitroaniline]",,,,break down into the ABZ-Trp-Glu-Gly-Asn-OH peptide fragment and chromophore
